Results as given in US20090105301A1, “9A-SUBSTITUTED AZALIDES FOR THE TREATMENT OF MALARIA” (priority 2006, published 2009).
Values after ≈ are worked out from the molar mass of the structure shown.

Tests used:
[1] = tested on: Plasmodium falciparum strain 3D7A; experiment: In vitro screening protocol II, [3H] hypoxanthine incorporation IC50 assay, 3D7A; assay type: cell-based; conditions: P. falciparum 3D7A; for IC50: Plasmodium falciparum
Method: (§1) The protocol described here is a modification of the in vitro screening protocol I and the details of the methodology are given below.
(§2) Plasmodium falciparum strains 3D7A and W2.
(§3) The culture medium comprised RPMI 1640 with 25 mM HEPES, sodium bicarbonate and glutamine (GIBCO™ cat. ref.: 52400), supplemented with 10% of pooled human sera AB (Bioreclamation HMSRM-AB)) and HT supplement (0.15 mM hypoxanthine and 24 μM thymidine), (GIBCO™ cat. ref.: 41065). Human sera were decomplemented 30 min. at 56° C., aliquoted and stored frozen at −20° C. until use in this culture medium.
(§4) This culture medium (“complete medium”) was usually prepared fresh just before use and pre-warmed to 37° C.
(§5) Red blood cells AB− stock suspensions were prepared from whole blood bags coming from incomplete blood donation, provided by the Spanish Red Cross (<25 days after sampling). This “whole blood” was aliquoted and stored at 4° C.
(§6) To prepare red blood cells for the assay, the whole blood was centrifuged and washed 3 times with RPMI without serum. The upper phase, containing white blood cells was removed. The washed red blood cells were kept as a 50% suspension in complete medium. The prepared cells were stored at 4° C. and were employed in the assay at any time up to 4 days after preparation.
(§7) Test compounds were dissolved at 2 mg/ml in 100% DMSO on the day of the assay. If necessary, complete dissolution was achieved by gentle heating (the mixture was heated at a temperature <37° C.) and sonication (sonication bath).
(§8) For IC50 determinations, 10 serial 2-fold dilutions were prepared in complete medium in the presence of a constant amount of DMSO. Any obvious signs of insolubility of the stock solutions in 100% DMSO or precipitation when these solutions were diluted in assay media, were recorded.
(§9) Plasmodium falciparum strains were maintained in complete medium at 5% of hematocrit in continuous culture using a method adapted from Trager W. and Jensen J. B. (Human malaria parasites in continuous culture Science 193 (4254) (1976) 673-675) and Trager W. (Cultivation of malaria parasites Methods Cell Biol. 45 (1994) 7-26).
(§10) The parasitemia was calculated by counting the percentage of parasitized erythrocytes by optical microscopy. Thin films of blood were made every day from each culture flask, fixed with methanol and stained for 10 min. in Giemsa (Merck, cat ref.: 1.09204) at 10% in buffered water pH 7.2. The glass slides were observed and counted with an optical microscope (Nikon, Eclipse E200) equipped with a 100× immersion oil objective.
(§11) The culture was maintained at 5% of hematocrit, with a daily change of medium and was diluted when parasitemia had reached about 5%.
(§12) [^3H] Hypoxanthine incorporation assay was conducted using a method adapted from Desjardins R. E. et al. (Quantitative assessment of antimalarial activity in vitro by a semiautomated microdilution technique. Antimicrob. Agents Chemother., 16 (6) (1979) 710-718). The assays were performed in 96 wells flat bottom microplates.
(§13) 1. Serial dilutions of each test compound (25 μl of a 5× solution/well) were deposited in one row of assay microtiter plate. Compounds of this invention were tested in this assay. Chloroquine and Azithromycin were used as control compounds for each assay.
(§14) 2. […] 100 μl of the resulting suspension was distributed into each well of columns 1-11 of assay microtiter plate leading to a final volume of 125 μl per well, at 1.2% of hematocrit and 0.4% of parasitemia/well.
(§15) 3. In each plate, 2 columns were reserved for control wells: • Column 11 (comprising wells A11-H11): Positive control wells: Untreated PRBCs to compare with cultures treated with test compounds. • Column 12 (comprising wells A12-H12): • Background value wells: Uninfected RBCs—blank control to obtain the background reading from RBCs without parasites (at 1.2% of hematocrite value).
(§16) 4. The plates were incubated at 37° C. under low oxygen atmosphere. […]

[2] = tested on: Plasmodium falciparum strain W2; experiment: In vitro screening protocol II, [3H] hypoxanthine incorporation IC50 assay, W2; assay type: cell-based; conditions: P. falciparum W2; for IC50: Plasmodium falciparum
Method: as §1, §2, §3, §4, §5, §6, §7, §8, §9, §10, §11, §12, §13, §14, §15, §16

IC50 [1]	IC50 [2]	Compound	IC50 3D7A [1]	IC50 W2 [2]
0.2 to 1 µg/mL (≈ 0.213 to 1.07 µM)	< 0.1 µg/mL	CC[C@H]1OC(=O)[C@H](C)[C@@H](O[C@H]2C[C@@](C)(OC)[C@@H](O)[C@H](C)O2)[C@H](C)[C@@H](O[C@@H]2O[C@H](C)C[C@H](N(C)C)[C@H]2O)[C@](C)(O)C[C@@H](C)CN(CCCNCC2CCNc3ccccc32)[C@H](C)[C@@H](O)[C@]1(C)O (some centres unmarked) [Example 55, 9a-{3-[(1,2,3,4-tetrahydro-quinolin-4-yl-methyl)amino]propyl}-9-deoxo-9-dihydro-9a-aza-9a-homoerythromycin A]		
< 0.1 µg/mL	0.1 to 0.2 µg/mL (≈ 0.157 to 0.313 µM)	CC[C@H]1OC(=O)[C@H](C)[C@@H](O)[C@H](C)[C@@H](O)[C@](C)(O)C[C@@H](C)CN(CCCNc2ccnc3cc(Cl)ccc23)[C@H](C)[C@@H](O)[C@]1(C)O [Example 56]		
		CC[C@H]1OC(=O)[C@H](C)[C@@H](O[C@H]2C[C@@](C)(OC)[C@@H](O)[C@H](C)O2)[C@H](C)[C@@H](O[C@@H]2O[C@H](C)C[C@H](N(C)C)[C@H]2O)[C@](C)(O)C[C@@H](C)CN(CCCNC(=O)CCc2ccc(F)cc2)[C@H](C)[C@@H](O)[C@]1(C)O.O=CO [Example 70, 9a-(3-{[3-(4-Fluorophenyl)propanoyl]amino}propyl)-9-deoxo-9-dihydro-9a-aza-9a-homoerythromycin A Formiate Salt]	D (1000 < X ≦ 2500)	C (200 < X ≦ 1000)
		9a-(3-{[(4-Nitrophenyl)acetyl]amino}propyl)-9-deoxo-9-dihydro-9a-aza-9a-homoerythromycin A Formiate Salt [Example 64]	D (1000 < X ≦ 2500)	C (200 < X ≦ 1000)
		CCC1OC(=O)C(C)C(OC2CC(C)(OC)C(O)C(C)O2)C(C)C(OC2OC(C)CC(N(C)C)C2O)C(C)(O)CC(C)CN(CCCNC(=O)Cc2cccc(Cl)c2)C(C)C(O)C1(C)O.O=CO (centres unmarked) [Example 62, 9a-(3-{[(3-Chlorophenyl)acetyl]amino}propyl)-9-deoxo-9-dihydro-9a-aza-9a-homoerythromycin A Formiate Salt]	C (200 < X ≦ 1000)	C (200 < X ≦ 1000)
		CCC1OC(=O)C(C)C(OC2CC(C)(OC)C(O)C(C)O2)C(C)C(OC2OC(C)CC(N(C)C)C2O)C(C)(O)CC(C)CN(CCCNC(=O)Cc2ccc(OC)cc2)C(C)C(O)C1(C)O.O=CO (centres unmarked) [Example 58, 9a-[3-({[4-(Methyloxy)phenyl]acetyl}amino)propyl]-9-deoxo-9-dihydro-9a-aza-9a-homoerythromycin A Formiate Salt]	G (3500 < X ≦ 5000)	C (200 < X ≦ 1000)
		CC[C@H]1OC(=O)[C@H](C)[C@@H](O[C@H]2C[C@@](C)(OC)[C@@H](O)[C@H](C)O2)[C@H](C)[C@@H](O[C@@H]2O[C@H](C)C[C@H](N(C)C)[C@H]2O)[C@](C)(O)C[C@@H](C)CN(CCCNC(=O)C(Cc2ccc(F)cc2)NC(C)=O)[C@H](C)[C@@H](O)[C@]1(C)O.O=CO (some centres unmarked) [Example 60, 9a-{3-[(N-Acetyl-4-fluorophenylalanyl)amino]propyl}-9-deoxo-9-dihydro-9a-aza-9a-homoerythromycin A Formiate Salt]	H (5000 < X ≦ 10000)	D (1000 < X ≦ 2500)
		CC(=O)O.CC(=O)O.CC(=O)O.CCC1OC(=O)C(C)C(OC2CC(C)(OC)C(O)C(C)O2)C(C)C(OC2OC(C)CC(N(C)C)C2O)C(C)(O)CC(C)CN(CCCNc2ccnc3cc(Cl)ccc23)C(C)C(O)C1(C)O (centres unmarked) [Example 77]	A (X ≦ 100)	A (X ≦ 100)
		CCC1OC(=O)C(C)C(OC2CC(C)(OC)C(O)C(C)O2)C(C)C(OC2OC(C)CC(N(C)C)C2O)C(C)(O)CC(C)CN(CCCNC(=O)Cc2ccccc2F)C(C)C(O)C1(C)O.O=CO (centres unmarked) [Example 69, 9a-(3-{[(2-Fluorophenyl)acetyl]amino}propyl)-9-deoxo-9-dihydro-9a-aza-9a-homoerythromycin A Formiate Salt]	G (3500 < X ≦ 5000)	C (200 < X ≦ 1000)
		CC[C@H]1OC(=O)[C@H](C)[C@@H](O[C@H]2C[C@@](C)(OC)[C@@H](O)[C@H](C)O2)[C@H](C)[C@@H](O[C@@H]2O[C@H](C)C[C@H](N(C)C)[C@H]2O)[C@](C)(O)C[C@@H](C)CN(CCCNC(=O)Cc2ccccc2[N+](=O)[O-])[C@H](C)[C@@H](O)[C@]1(C)O.O=CO [Example 67, 9a-(3-{[(2-Nitrophenyl)acetyl]amino}propyl)-9-deoxo-9-dihydro-9a-aza-9a-homoerythromycin A Formiate Salt]	H (5000 < X ≦ 10000)	D (1000 < X ≦ 2500)
0.2 to 1 µg/mL (≈ 0.205 to 1.03 µM)	0.2 to 1 µg/mL (≈ 0.205 to 1.03 µM)	CC[C@H]1OC(=O)[C@H](C)[C@@H](O[C@H]2C[C@@](C)(OC)[C@@H](O)[C@H](C)O2)[C@H](C)[C@@H](O[C@@H]2O[C@H](C)C[C@H](N(C)C)[C@H]2O)[C@](C)(O)C[C@@H](C)CN(CCCNC(=O)/C=C/c2cnc3ccccc3c2)[C@H](C)[C@@H](O)[C@]1(C)O [Example 76, 9a-(3-{[(2E)-3-(Quinolin-3-yl)-2-propenoyl]amino}propyl)-9-deoxo-9-dihydro-9a-aza-9a-homoerythromycin A]		
		CCC1OC(=O)C(C)C(OC2CC(C)(OC)C(O)C(C)O2)C(C)C(OC2OC(C)CC(N(C)C)C2O)C(C)(O)CC(C)CN(CCCNC(=O)Cc2ccc(F)cc2)C(C)C(O)C1(C)O.O=CO (centres unmarked) [Example 68, 9a-(3-{[(4-Fluorophenyl)acetyl]amino}propyl)-9-deoxo-9-dihydro-9a-aza-9a-homoerythromycin A Formiate Salt]	F (2800 < X ≦ 3500)	C (200 < X ≦ 1000)
		CC(=O)O.CC(=O)O.CC[C@H]1OC(=O)[C@H](C)[C@@H](O[C@H]2C[C@@](C)(OC)[C@@H](O)[C@H](C)O2)[C@H](C)[C@@H](O[C@@H]2O[C@H](C)C[C@H](N(C)C)[C@H]2O)[C@](C)(O)C[C@@H](C)CN(CCCNC(=O)CCc2ccccc2)[C@H](C)[C@@H](O)[C@]1(C)O [Example 47, 9a-{3-[(3-Phenylpropanoyl)amino]propyl}-9a-aza-9-deoxo-9-dihydro-9a-homoerythromycin A Diacetate Salt]	D (1000 < X ≦ 2500)	D (1000 < X ≦ 2500)
		CC(=O)O.CC(=O)O.CCC1OC(=O)C(C)C(OC2CC(C)(OC)C(O)C(C)O2)C(C)C(OC2OC(C)CC(N(C)C)C2O)C(C)(O)CC(C)CN(CCCNCc2ccnc3ccccc23)C(C)C(O)C1(C)O (centres unmarked) [Example 78, 9a-{3-[(Quinolin-4-yl-methyl)amino]propyl}-9-deoxo-9-dihydro-9a-aza-9a-homoerythromycin A Diacetate Salt]	C (200 < X ≦ 1000)	A (X ≦ 100)
		CCC1OC(=O)C(C)C(OC2CC(C)(OC)C(O)C(C)O2)C(C)C(OC2OC(C)CC(N(C)C)C2O)C(C)(O)CC(C)CN(CCCNC(=O)Cc2ccc(Cl)cc2)C(C)C(O)C1(C)O.O=CO (centres unmarked) [Example 63, 9a-(3-{[(4-Chlorophenyl)acetyl]amino}propyl)-9-deoxo-9-dihydro-9a-aza-9a-homoerythromycin A Formiate Salt]	C (200 < X ≦ 1000)	C (200 < X ≦ 1000)
0.1 to 0.2 µg/mL (≈ 0.107 to 0.215 µM)	< 0.1 µg/mL	CC[C@H]1OC(=O)[C@H](C)[C@@H](O[C@H]2C[C@@](C)(OC)[C@@H](O)[C@H](C)O2)[C@H](C)[C@@H](O[C@@H]2O[C@H](C)C[C@H](N(C)C)[C@H]2O)[C@](C)(O)C[C@@H](C)CN(CCCNCc2ccc3ccccc3c2)[C@H](C)[C@@H](O)[C@]1(C)O [Example 54, 9a-{3-[(Naphtalen-2-yl-methyl)amino]propyl}-9-deoxo-9-dihydro-9a-aza-9a-homoerythromycin A]		
